In patent publication US10508090B2, “Sulfonamides as GPR40- and GPR120-agonists” (DOMPÉ FARMACEUTICI S.P.A., priority 2016, dated 2019):

Columns and labels:
[1] = biological target: T1, human GPR120 (Homo sapiens, UniProt Q5NUL3); experiment: In vitro Ca2+ mobilization, CHO-k1 cells stably expressing human GPR120; type: cell-based; conditions: for AC50: intracellular calcium, CHO-k1 cells expressing human GPR120, read-out: Ca2+ hGPR120 AC50
T1 construct: expressed in transfected cells; host or cells: CHO-k1
T1 sequence (Q5NUL3 1-361): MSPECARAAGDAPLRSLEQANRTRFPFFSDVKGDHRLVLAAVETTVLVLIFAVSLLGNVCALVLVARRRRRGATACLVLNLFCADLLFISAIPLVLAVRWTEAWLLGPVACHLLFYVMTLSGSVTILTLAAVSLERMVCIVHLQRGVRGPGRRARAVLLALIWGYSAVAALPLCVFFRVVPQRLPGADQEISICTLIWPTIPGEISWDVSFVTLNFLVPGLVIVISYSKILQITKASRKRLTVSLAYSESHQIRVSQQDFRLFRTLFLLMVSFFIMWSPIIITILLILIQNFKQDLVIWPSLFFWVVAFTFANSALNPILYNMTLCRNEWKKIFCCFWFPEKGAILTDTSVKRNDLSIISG
Description: (§1) GPR120/40 Activation: In Vitro Ca^2+ Mobilization
(§2) The activation of GPR120/40 by all compounds was determined by measuring changes in intracellular calcium levels using a Ca^2+ sensitive fluorescent dye.
(§3) The experiments were performed using CHO-k1 cells stably expressing the human GPR120 or GPR40. Cells were seeded 10000 cells/well in 384-plates in complete medium and grown overnight at 37° C., 5% CO2. 24 h after seeding, cell culture media was removed and cells were loaded with the fluorescent Ca^2+ indicator (Fluo-8 NW dye in Tyrode's buffer). Dye-loaded cell plates were incubated for 1 h at room temperature under a yellow light sodium lamp.
(§4) Cell were treated with test compounds and controls at 10, 30 and 60 μM. The kinetic response was monitored over a period of 7 minutes (using FLIPRTETRA system). A second injection of 3× concentrated reference agonist at ˜EC50 were then administered to cells and the signal of the emitted fluorescence was measured over a period of additional 3 minutes. The agonist effect is expressed as a percentage of activation, with 100% activation being a result in which the Response Values of the test wells reach a level identical to the one of the Stimulator Controls (alpha linolenic acid reference agonist EC100). 0% activation is a result in which the Response Values of the test wells reach a level identical to the one of the Neutral Controls (assay buffer) in the AGO_KRV (Agonist Kinetic Response Value) response value.

[2] = biological target: T2, human GPR40 (Homo sapiens, UniProt O14842); experiment: In vitro Ca2+ mobilization, CHO-k1 cells stably expressing human GPR40; type: cell-based; conditions: for AC50: read-out: Ca2+ hGPR40 AC50
T2 construct: expressed in transfected cells; host or cells: CHO-k1
Description: as §1, §2, §3, §4

[3] = tested on: STC-1 cells; experiment: In vitro GLP-1 secretion in STC-1 cells (ELISA); type: cell-based, murine; conditions: for fold induction at 30 µM: Mus musculus, STC-1, 0.5 h, compound at 30 μM for 30 minutes, STC-1 cells, read-out: GLP-1 RELEASE STC-1, fold of increase over DMSO
Description: (§5) GPR120/40 Activation: In Vitro GLP-1 Secretion
(§6) 2×10^5 STC-1 cells were seeded in a 12-plate and 24 hours later were treated with selected compounds. 1×10^6 NCI-H716 cells were differentiated in matrigel-coated 12-plate and treated 48 h hours later.
(§7) The day of the experiment, wells were washed once with 1 ml of PBS and then cells were stimulated with 0.5 ml of DMEM (w/o serum, w/o phenol-red) containing 30 μM of selected compounds in STC1 and 100 μM in differentiated NCIH716 for 30 minutes. DMSO has been used as negative control, α-linolenic acid (ALA) (endogenous agonist) as positive control. After stimulations, supernatants were collected, centrifuged at 4000 rpm for 4′ at 4° C., and used for the GLP1 detection by ELISA.

[4] = tested on: NCI-H716 cells; experiment: In vitro GLP-1 secretion in differentiated NCI-H716 cells (ELISA); type: cell-based, human; conditions: for fold induction at 100 µM: Homo sapiens, NCI-H716, 0.5 h, compound at 100 μM for 30 minutes, differentiated NCI-H716 cells, read-out: GLP-1 RELEASE NCI, fold of increase over DMSO
Description: as §5, §6, §7

[5] = intracellular calcium, CHO-k1 cells expressing human GPR40

T2 sequence (O14842 whole entry): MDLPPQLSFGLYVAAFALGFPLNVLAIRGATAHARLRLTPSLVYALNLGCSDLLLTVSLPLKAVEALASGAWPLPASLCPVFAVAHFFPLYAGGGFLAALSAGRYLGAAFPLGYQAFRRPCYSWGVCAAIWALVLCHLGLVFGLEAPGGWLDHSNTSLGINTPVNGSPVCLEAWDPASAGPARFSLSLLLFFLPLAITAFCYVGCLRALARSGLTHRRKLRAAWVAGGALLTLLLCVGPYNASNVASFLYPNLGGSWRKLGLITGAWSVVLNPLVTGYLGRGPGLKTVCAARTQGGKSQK

| SMILES | agonistic activity on GPR120 (AC50 in the calcium mobilization assay), in words [1] | AC50 [1] [µM] | agonistic activity on GPR40 (AC50 in the calcium mobilization assay), in words [2] | Ca2+ hGPR40 AC50 [2, 5] | GLP-1 secretion in STC1 (murine) cells, in words [3] | fold induction at 30 µM [3] | GLP-1 secretion in NCI-H716 (human) cells, in words [4] | fold induction at 100 µM [4] | AC50 [2, 5] [µM] |
| --- | --- | --- | --- | --- | --- | --- | --- | --- | --- |
| Cc1cc(Oc2ccccc2)cc(C)c1NS(=O)(=O)c1cccc(CCCCCCC(=O)O)c1 [Example 33, 7-(3-(N-(2,6-dimethyl-4-phenoxyphenyl)sulfamoyl)phenyl)heptanoic acid] | low microMolar range | 18 | low microMolar range | Inactive | efficacious | 3 ± 1.82 | efficacious | 1.58 ± 1.27 |  |
| Cc1cc(-c2ccccc2)cc(C)c1NS(=O)(=O)c1cccc(CCCCCCC(=O)O)c1 [Example 32, 7-(3-(N-(3,5-dimethyl-[1,1′-biphenyl]-4-yl)sulfamoyl)phenyl)heptanoic acid] |  | 11.1 |  |  |  | 3.67 ± 0.9 |  | 4.51 ± 0.59 | 23.7 |
| Cc1cc(F)cc(C)c1NS(=O)(=O)c1cccc(CCCCCCC(=O)O)c1 [Example 1, 7-(3-(N-(4-fluoro-2,6-dimethylphenyl)sulfamoyl)phenyl)heptanoic acid] | low microMolar range | 5.24 | low microMolar range |  | efficacious | 1.87 ± 0.5 | efficacious | 1.08 ± 0.1 | 140 |
| Cc1cc(O)cc(C)c1NS(=O)(=O)c1cccc(CCCCCCC(=O)O)c1 [Example 31, 7-(3-(N-(4-hydroxy-2,6-dimethylphenyl)sulfamoyl)phenyl)heptanoic acid] |  | 9.3 |  |  |  | 3.55 ± 0.87 |  | 3.7 ± 0.56 | 3.2 |
| O=C(O)CCCCCCc1cccc(S(=O)(=O)NC2=NC3CCCCC3N2)c1 (stereo not drawn) [Example 29, 7-(3-(N-(3a,4,5,6,7,7a-hexahydro-1H-benzo[d]imidazol-2-yl)sulfamoyl)phenyl)heptanoic Acid] |  | 12.4 |  |  |  | 1.12 ± 0.4 |  | 2.89 ± 0.81 | 8.4 |
| Cc1cc(OCc2ccccc2)cc(C)c1NS(=O)(=O)c1cccc(CCCCCCC(=O)O)c1 [Example 34, 7-(3-(N-(4-(benzyloxy)-2,6-dimethylphenyl)sulfamoyl)phenyl)heptanoic acid] |  | 7 |  |  |  | 5.5 ± 0.73 |  | 4.58 ± 0.26 | 12.4 |
| Cn1nnc(NS(=O)(=O)c2cccc(CCCCCCC(=O)O)c2)n1 [Example 27, 7-(3-(N-(2-methyl-2H-tetrazol-5-yl)sulfamoyl)phenyl)heptanoic acid] |  | 10.1 |  |  |  | 1.99 ± 0.51 |  | 2.89 ± 0.55 | 10.7 |
| Cc1noc(C)c1NS(=O)(=O)c1cccc(CCCCCCC(=O)O)c1 [Example 19, 7-(3-(N-(3,5-dimethylisoxazol-4-yl)sulfamoyl)phenyl)heptanoic acid] |  | 17.6 |  |  |  | 2.57 ± 0.56 |  | 2.24 ± 0.39 | 12.1 |
| O=C(O)CCCCCCc1cccc(S(=O)(=O)Nc2cc(-c3ccccc3)ns2)c1 [Example 22, 7-(3-(N-(3-phenylisothiazol-5-yl)sulfamoyl)phenyl)heptanoic acid] |  | 10.2 |  |  |  | 3.13 ± 1.26 |  | 3.71 ± 0.67 | 11.7 |
| O=C(O)CCCCCCc1cccc(S(=O)(=O)Nc2cccc3c(O)cccc23)c1 [Example 23, 7-{3-[(5-hydroxynaphthalen-1-yl)sulfamoyl]phenyl}heptanoic acid] |  | 7.1 |  |  |  | 4.34 ± 0.51 |  | 4.69 ± 0.41 | 8.2 |
| Cc1nc(C)c(NS(=O)(=O)c2cccc(CCCCCCC(=O)O)c2)s1 [Example 13, 7-(3-(N-(2,4-dimethylthiazol-5-yl)sulfamoyl)phenyl)heptanoic acid] |  | 15.2 |  |  |  | 1.13 ± 0.15 |  | 1.03 ± 0.17 | 23.9 |
| Cc1nc(NS(=O)(=O)c2cccc(CCCCCCC(=O)O)c2)sc1C [Example 14, 7-(3-(N-(4,5-dimethylthiazol-2-yl)sulfamoyl)phenyl)heptanoic acid] |  | 17.4 |  |  |  | 1.37 ± 0.11 |  | 1.81 ± 0.67 | 20.8 |
| Cc1nnc(NS(=O)(=O)c2cccc(CCCCCCC(=O)O)c2)[nH]1 [Example 20, 7-(3-(N-(5-methyl-4H-1,2,4-triazol-3-yl)sulfamoyl)phenyl)heptanoic acid] |  | 6.5 |  |  |  | 3.36 ± 0.37 |  | 3.31 ± 0.28 | 8.2 |
| Cc1cc(F)cc(C)c1C(=O)NS(=O)(=O)c1cccc(CCCCCCC(=O)O)c1 [Example 24, 7-{3-[(4-fluoro-2,6-dimethylbenzoyl)sulfamoyl]phenyl}heptanoic acid] |  | 5.9 |  |  |  | 4.19 ± 0.72 |  | 5.01 ± 0.99 | 13.3 |
| Cc1cc(C(F)(F)F)cc(C)c1NS(=O)(=O)c1cccc(CCCCCCC(=O)O)c1 [Example 6, 7-(3-(N-(2,6-dimethyl-4-(trifluoromethyl)phenyl)sulfamoyl)phenyl)heptanoic acid] | low microMolar range | 6 | low microMolar range |  | efficacious | 4.2 ± 0.45 | efficacious | 2.54 ± 0.52 | 11.7 |
| Cc1nnc(C)n1NS(=O)(=O)c1cccc(CCCCCCC(=O)O)c1 [Example 21, 7-(3-(N-(3,5-dimethyl-4H-1,2,4-triazol-4-yl)sulfamoyl)phenyl)heptanoic acid] |  | 17 |  |  |  | 2.23 ± 0.98 |  | 2.57 ± 0.91 | 7.9 |
| Cc1cc(Cl)cc(C)c1NS(=O)(=O)c1cccc(CCCCCCC(=O)O)c1 [Example 4, 7-(3-(N-(4-chloro-2,6-dimethylphenyl)sulfamoyl)phenyl)heptanoic acid] | low microMolar range | 4.36 | low microMolar range |  | efficacious | 4.1 ± 0.54 | efficacious | 1.92 ± 0.57 | 41.3 |
